These results are taken from US20200045956A1, “POLYPEPTIDE SPERM STABILISER FOR SEMEN USED IN ARTIFICIAL INSEMINATION” (UNIVERSIDAD DE LA FRONTERA, priority 2017, published 2020).

The assay relates to porcine spermatozoa. The assay can be described thus: Progressive motility / viability of gametes incubated in fertilizing solution with FB-sp (CASA method, optical microscopy). The class given is cell-based. As to the method:
A test of the progressive motility of gametes incubated in fertilizing solution added with the FB-sp bio-stabiliser polypeptide was performed. Progressive gametes are spermatozoa that have normal mobility capacity and are suitable for fertilizing.
It can be seen that the incubation of spermatozoa of porcine boars with FB-sp (●) (10 μM) preserves progressive motility up to 85% of spermatozoa for a period of 7 days, while the control (▪) without stabiliser decreases to a value of 70% on day 7, the difference increases over the days.

On to “RPGLPVFSPL (Spermatic biostabilizer FB-sp) [polypeptide sperm stabiliser of 10 amino acids: Arg, Pro, Gly, Leu, Pro, Val, Phe, Ser, Pro, Leu]”, for which the “progressive motility of spermatozoa preserved” value (FB-sp 10 μM, 17° C., period of 7 days, porcine boar spermatozoa) is “up to 85%”. The survival entry (extender with FB-sp added, after 7 days) is “over 65%”.
